In patent publication US20230248741A1, “Compositions and Methods for Lowering Triglycerides in a Subject with Reduced Kidney Function and Diabetes Mellitus” (Amarin Pharmaceuticals Ireland Limited, priority 2018, published 2023):

Columns and labels:
Type in all cases: in vivo, human
[1] = test system: patients with chronic kidney disease (eGFR <60 mL/min/1.73 m^2 for ≥3 months); assay: ANCHOR post-hoc: lipid and lipoprotein parameters, oxidation and inflammation markers
Procedure: CVD-related (e.g., atherogenic) parameters were analyzed in a post-hoc study of 55 patients from the multi-center, placebo-controlled, randomized double-blind, 12-week study described in Example 1. These 55 patients have chronic kidney disease (e.g., eGFR<60 mL/min/1.73 m^2 for ≥3 months). There was no lower limit of eGFR specified.
Subjects: 19 patients were randomized to E-EPA and 36 patients were randomized to placebo. One patient in each group discontinued and was excluded from efficacy analyses (but not safety analyses). EPA levels in plasma and RBC were measured in 23 of the 55 patients. These measurements were taken on 7 of the patients randomized to E-EPA and on 16 of the patients that were randomized to the placebo.
The primary objective of this post-hoc study, which is based on an intention to treat, was to determine if and how 4 g daily of >96% E-EPA affects patients with stage 3 chronic kidney disease (e.g., eGFR<60 mL/min/1.73 m^2 for ≥3 months). The secondary objective was to determine if and how 4 g daily of >96% E-EPA, compared to a placebo, affected CVD-related parameters in patients with a high risk of CVD and fasting TG levels ≥[…] and <500 mg/dL, despite LDL-C goal on statin therapy. These CVD-parameters include lipid levels, lipoprotein levels, and inflammatory markers, such as TC, LDL-C, HDL-C, VLDL-C, VLDL-TG, RLP-C, non-HDL-C, Apo B, Apo C-III, Lp-PLA, hsCRP, and ox-LDL, and in plasma and RBC EPA concentration. CVD-parameters were analyzed for median difference in percent change from baseline to week 12 in subjects receiving 4 g/day of E-EPA and those receiving the placebo.
Analysis: The median difference in percent change from baseline between 4 g/day of E-EPA and placebo for the primary efficacy variable and additional assessments were estimated using the Hodges-Lehmann method (P values from the Wilcoxon rank-sum test for treatment comparisons). Using the Hodges-Lehmann method, departures from normal distribution were observed; for normally distributed parameters, an analysis of covariance model was used with least squares (LS) means and standard errors (SE). Missing values were imputed using the last-observation-carried-forward method. For all post hoc analyses, the alpha for statistical significance was 0.05.

[2] = test system: subjects with Age-Associated Memory Impairment; assay: Safety and tolerability (TEAEs), 6-week AAMI study
Procedure: All randomized subjects that received at least 1 dose of study medication were included in the Safety Population.
Safety evaluations were based on the safety population. Safety and tolerability were assessed in terms of AEs, vital signs, 12-lead ECG, clinical laboratory data, medical history, and study drug compliance. Safety and tolerability data were presented by treatment group.

[3] = test system: patients with eGFR <90 mL/min/1.73 m^2 for ≥3 months and hsCRP ≥2.0 mg/L; assay: ANCHOR post-hoc: lipid parameters; conditions: 4 g/day; 12 weeks; P<0.0001
Procedure: CVD-related (e.g., atherogenic) parameters were analyzed in a post-hoc study of 152 patients from the multi-center, placebo-controlled, randomized double-blind, 12-week study described in Example 1. These 152 patients have reduced kidney reduced function (e.g., eGFR<90 mL/min/1.73 m^2 for ≥3 months) and hsCRP≥2.0 mg/L.
Subjects: 72 patients were randomized to E-EPA and 80 patients were randomized to placebo. In total, atherogenic parameters were analyzed in all 152 patients, 54% of which were male and 99% of which were white. The mean age of the 152 patients was 64 years old.
The primary objective of this post-hoc study, was to determine if and how 4 g of daily of >96% E-EPA, compared to placebo, affects patients with reduced kidney function, elevated hsCRP (e.g, hsCRP≥2.0 mg/L), and high triglyceride levels. […] CVD-parameters were analyzed for median difference in percent change from baseline to week 12 in subjects receiving 4 g/day of E-EPA and those receiving the placebo.
Analysis: The median difference in lipid/lipoprotein, apolipoprotein, and inflammatory parameters were determined from baseline to week 12 for 4/g day of E-EPA compared to placebo.

[4] = 4 g/day group (n = 17), before treatment
[5] = 4 g/day group, before treatment
[6] = 4 g/day, week 12, Hodges-Lehmann

Compound: CC/C=C\C/C=C\C/C=C\C/C=C\C/C=C\CCCC(=O)OCC [E-EPA, ethyl eicosapentaenoate]
- Ox-LDL Baseline, median ([1]; 4 g/day group (n = 8), before treatment): 48.6 u/L
- RLP-C Baseline, median ([1]; 4 g/day group (n = 9), before treatment): 17.0 mg/dL
- Apo C-III Baseline, median ([1]; 4 g/day group (n = 13), before treatment): 15.6 mg/dL
- Apo B Baseline, median [1, 4]: 87.0 mg/dL
- Lp-PLA2 Baseline, median [1, 4]: 173.0 ng/mL
- hsCRP Baseline, median [1, 4]: 1.9 mg/L
- TGs Baseline, median ([1]; 4 g/day group (n = 18), before treatment): 268.5 mg/dL
- HDL-C Baseline, median [1, 5]: 35.0 mg/dL
- LDL-C Baseline, median [1, 5]: 76.0 mg/dL
- Non-HDL-C Baseline, median [1, 5]: 124.5 mg/dL
- TC Baseline, median [1, 5]: 159.5 mg/dL
- VLDL-C Baseline, median [1, 5]: 42.0 mg/dL
- VLDL-TGs Baseline, median [1, 5]: 194.0 mg/dL
- reduction of TG compared to placebo ([1]; 4 g/day, 12 weeks, P=0.007): at least 16.9%
- median TGs reduction from baseline ([1]; 4 g/day, CKD cohort): −16.9%
- Apo B Change From Baseline, %, median ([1]; 4 g/day, week 12): −7.2%
- Apo B End of Treatment, median ([1]; 4 g/day, week 12): 83.0 mg/dL
- Apo C-III Change From Baseline, %, median ([1]; 4 g/day, week 12): −7.3%
- Apo C-III End of Treatment, median ([1]; 4 g/day, week 12): 13.9 mg/dL
- HDL-C Change From Baseline, %, median ([1]; 4 g/day, week 12): 0.9%
- HDL-C End of Treatment, median ([1]; 4 g/day, week 12): 35.5 mg/dL
- LDL-C Change From Baseline, %, median ([1]; 4 g/day, week 12): −6.5%
- LDL-C End of Treatment, median ([1]; 4 g/day, week 12): 70.5 mg/dL
- Lp-PLA2 Change From Baseline, %, median ([1]; 4 g/day, week 12): −12.7%
- Lp-PLA2 End of Treatment, median ([1]; 4 g/day, week 12): 150.0 ng/mL
- Non-HDL-C Change From Baseline, %, median ([1]; 4 g/day, week 12): −8.4%
- Non-HDL-C End of Treatment, median ([1]; 4 g/day, week 12): 116.0 mg/dL
- Ox-LDL Change From Baseline, %, median ([1]; 4 g/day, week 12): −9.5%
- Ox-LDL End of Treatment, median ([1]; 4 g/day, week 12): 45.1 u/L
- TC Change From Baseline, %, median ([1]; 4 g/day, week 12): −8.1%
- TC End of Treatment, median ([1]; 4 g/day, week 12): 151.5 mg/dL
- TGs Change From Baseline, %, median ([1]; 4 g/day, week 12): −17.1%
- TGs End of Treatment, median ([1]; 4 g/day, week 12): 230.5 mg/dL
- VLDL-C Change From Baseline, %, median ([1]; 4 g/day, week 12): −16.3%
- VLDL-C End of Treatment, median ([1]; 4 g/day, week 12): 36.5 mg/dL
- VLDL-TGs Change From Baseline, %, median ([1]; 4 g/day, week 12): −25.8%
- VLDL-TGs End of Treatment, median ([1]; 4 g/day, week 12): 168.5 mg/dL
- hsCRP Change From Baseline, %, median ([1]; 4 g/day, week 12): −16.9%
- hsCRP End of Treatment, median ([1]; 4 g/day, week 12): 2.1 mg/L
- Apo B Median Difference in % Change From Baseline vs. Placebo [1, 6]: −18.7, 0.0002%
- Apo C-III Median Difference in % Change From Baseline vs. Placebo [1, 6]: −15.0, 0.0168%
- HDL-C Median Difference in % Change From Baseline vs. Placebo [1, 6]: −8.3, 0.0362%
- LDL-C Median Difference in % Change From Baseline vs. Placebo [1, 6]: −20.8, 0.0086%
- Lp-PLA2 Median Difference in % Change From Baseline vs. Placebo [1, 6]: −17.5, 0.0068%
- Non-HDL-C Median Difference in % Change From Baseline vs. Placebo [1, 6]: −21.5, <0.0001%
- Ox-LDL Median Difference in % Change From Baseline vs. Placebo [1, 6]: −25.7, 0.0068%
- RLP-C Median Difference in % Change From Baseline vs. Placebo [1, 6]: −38.8, 0.0295%
- TC Median Difference in % Change From Baseline vs. Placebo [1, 6]: −18.2, <0.0001%
- TGs Median Difference in % Change From Baseline, Icosapent Ethyl 4 g/day vs. Placebo [1, 6]: −16.9, 0.0074%
- VLDL-C Median Difference in % Change From Baseline vs. Placebo [1, 6]: −28.7, 0.0026%
- VLDL-TGs Median Difference in % Change From Baseline vs. Placebo [1, 6]: −25.6, 0.0020%
- hsCRP Median Difference in % Change From Baseline vs. Placebo ([1]; 4 g/day, week 12, Hodges-Lehmann, P 0.1209): −25.0, 0.1209%
- RLP-C Change From Baseline, %, median ([1]; 4 g/day, week 12, n = 9): −38.9%
- RLP-C End of Treatment, median ([1]; 4 g/day, week 12, n = 9): 10.0 mg/dL
- subjects with nausea Possibly Related to the study drug ([2]; 1 g E-EPA cohort): two
- TEAE Probably Related to the study drug ([2]; 1 g E-EPA, one subject): nausea
- subjects with nausea Possibly Related to the study drug ([2]; 2 g E-EPA cohort): one
- Serious Adverse Event (worsening epigastric chest pain), relation to study drug ([2]; 2 g E-EPA, one subject): unrelated to the study drug
- subjects with nausea Possibly Related to the study drug ([2]; 4 g E-EPA cohort): two
- TEAE Probably Related to the study drug ([2]; 4 g E-EPA, one subject): diarrhea
- SAE reported ([2]; E-EPA 2 g treatment group): One
- subjects discontinued due to TEAEs ([2]; E-EPA 2 g treatment group): 2 subjects
- TEAEs reported ([2]; E-EPA treatment groups (1, 2, 4 g), placebo groups 34 events): 105 events
- TEAEs Definitely Related to the study drug ([2]; all groups): No TEAEs were Definitely Related to the study drug
- deaths during the study ([2]; all groups): no deaths
- reduction of triglycerides compared to placebo [3]: about 16.9%
